Consider 11 compounds from paper PMC6100288 (Molecules : A Journal of Synthetic Chemistry and Natural …, 2018).

The target in experiment [1] is T1, recombinant human PTP1B (Homo sapiens, UniProt P18031).
T1 construct: purchased Enzo Life Sciences Inc. BML-SE332-0050
T1 sequence (P18031 1-322 limits assumed): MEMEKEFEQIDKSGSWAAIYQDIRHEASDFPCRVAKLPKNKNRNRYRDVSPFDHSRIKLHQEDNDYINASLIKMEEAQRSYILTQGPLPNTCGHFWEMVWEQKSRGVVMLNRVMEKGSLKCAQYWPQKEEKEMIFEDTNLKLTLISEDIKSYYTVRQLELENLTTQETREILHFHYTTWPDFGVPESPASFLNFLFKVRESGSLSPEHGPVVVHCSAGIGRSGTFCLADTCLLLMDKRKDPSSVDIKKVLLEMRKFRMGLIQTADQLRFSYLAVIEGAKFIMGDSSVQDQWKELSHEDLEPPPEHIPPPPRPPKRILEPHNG
The experiment is described as follows: Microplate-based PTP1B inhibition assay (pNPP substrate). The class given is biochemical. The settings on record: n = 3; IC50 ± standard error; pH 7, 25 °C, 0.5 mM pNPP. The source says: p-Nitrophenyl phosphate (pNPP), dimethyl sulfoxide (DMSO), sodium phosphate monobasic dihydrate, sodium phosphate dibasic, sodium hydroxide, sodium azide, tris-(hydroxymethyl)-aminomethane (Tris), bis-(2-hydroxyethyl)-imino-tris-(hydroxymethylmethane) (Bis-Tris), N,N,N′,N′-ethylenediaminetetraacetate (EDTA), dithiothreitol (DTT), methanol-d4, and HPLC grade acetonitrile were purchased from Sigma-Aldrich (St. Louis, MO, USA), recombinant human PTP1B (BML-SE332-0050, EC 3.1.3.48) was purchased from Enzo Life Sciences Inc. (Farmingdale, NY, USA), and formic acid was purchased from Merck (Darmstadt, Germany). Water was purified by deionization and filtration through a 0.22 μm membrane (Millipore, Billerica, MA, USA).
PTP1B inhibition assaying of the defatted extract, fraction F1 (from preparative HPLC: see Section 3.5) and microfractions (obtained as described below in Section 3.4) were performed according to the microplate-based method previously described. In brief, all solutions were prepared in a buffer of 50 mM Tris and 50 mM Bis-Tris containing 100 mM NaCL and adjusted to pH 7. […] The microplate was incubated for 10 min at 25 °C, and the reaction was started by addition of 0.001 μg/μL PTP1B stock solution (50 μL) in phosphate buffer (to give a final concentration of 0.05 µg PTP1B per well). […] For each microplate, blank samples (negative controls) containing buffer, enzyme, EDTA, DTT, and pNPP were measured in triplicate, and for the dilution series, RK682 was included as a reference inhibitory compound (i.e., positive control). The percentage inhibition of PTP1B was calculated according to the following equation: % inhibition=(1−SLOPEsample/SLOPEblank)×100
(§1) The high-resolution PTP1B biochromatograms (high-resolution PTP1B inhibition profiles) were constructed by plotting the inhibition values against the chromatographic retention time. Dose-response curves and IC50 values for dilution series of the crude extract and pure compounds were obtained using GraFit software, version 5.0.11 (Erithacus Software Limited, West Sussex, UK). For PTP1B IC50 values, the crude extract and isolated compounds were assessed by using the standard assay conditions described above. Nine dilutions were assessed in triplicates and percentage inhibition calculated as mean ± standard deviation in Microsoft Excel according to the above equation. The results were imported and used for assessing dose-response curves and IC50 values in GraFit software, version 5.0.11 (Erithacus Software Limited). Data were fitted to the equation f(x)=min+max−min/1+(x/IC50)^slope where min is the background, max–min is the y-range, x is the concentration, and slope is the Hill slope.

Experiment [2] has as its target T1, recombinant human PTP1B. The experiment can be described thus: High-resolution PTP1B inhibition profiling (biochromatogram of HPLC microfractions). The class given is biochemical. The settings on record: HPLC microfractions of crude ethyl acetate extract, Figure 1; result in words. The protocol: PTP1B inhibition assaying of the defatted extract, fraction F1 (from preparative HPLC: see Section 3.5) and microfractions (obtained as described below in Section 3.4) were performed according to the microplate-based method previously described. In brief, all solutions were prepared in a buffer of 50 mM Tris and 50 mM Bis-Tris containing 100 mM NaCL and adjusted to pH 7. To each well containing microfractions or dilution series of pure compounds were added 18 µL of DMSO and 52 µL of 3.4 mM EDTA in Bis-Tris buffer (to give final well concentrations of 10% DMSO and 1 mM EDTA) as well as 60 µL of a Bis-Tris buffer solution containing 1.5 mM pNPP and 6 mM DTT in phosphate buffer (to give final well concentrations of 0.5 mM pNPP and 2 mM DTT). The microplate was incubated for 10 min at 25 °C, and the reaction was started by addition of 0.001 μg/μL PTP1B stock solution (50 μL) in phosphate buffer (to give a final concentration of 0.05 µg PTP1B per well). The reaction was monitored at 405 nm every 30 s for 10 min to yield the enzyme activity (expressed as cleavage rate AU/s) by using a Thermo Scientific Multiskan FC microplate photometer (Thermo Scientific, Waltham, MA, USA). For each microplate, blank samples (negative controls) containing buffer, enzyme, EDTA, DTT, and pNPP were measured in triplicate, and for the dilution series, RK682 was included as a reference inhibitory compound (i.e., positive control). The percentage inhibition of PTP1B was calculated according to the following equation: % inhibition=(1−SLOPEsample/SLOPEblank)×100
as §1, with “slope. Results are reported as IC50 values ± standard error.” for “slope.”
Microfractionation of the extract of M. albicans for high-resolution PTP1B inhibition profiling was conducted using an Agilent 1200 system (Santa Clara, CA, USA—HPLC system 1) comprising a G1311A quaternary pump, a G1322A degasser, a G1316A thermostatted column compartment, a G1315C photodiode array detector, a G1367C high-performance autosampler, and a G1364C fraction collector, controlled by Agilent ChemStation version B.03.02 software. Separations were performed by using a reversed-phase Phenomenex Luna C18(2) column (150 mm × 4.6 mm i.d., 3 μm particle size, 100 Å pore size) (Phenomenex, Torrance, CA, USA). A binary elution system of water: acetonitrile (95:5, solvent A) and acetonitrile: water (95:5, solvent B), both acidified with 0.1% formic acid, was used with a flow rate of 0.8 mL/min. […]

The subject of experiment [3] is PTP1B. Also on record: method as in PMID 23704520. The note with it: read-out: previously reported IC50-value (PTP1B); cited from earlier work.

Take `CC1(C)CC[C@]2(C(=O)O)CC[C@]3(C)C(=CC[C@@H]4[C@@]5(C)C[C@@H](O)[C@H](OC(=O)/C=C/c6ccc(O)cc6)C(C)(C)[C@@H]5CC[C@]43C)[C@@H]2C1` [Compound 17, 3-O-trans-p-coumaroyl-maslinic acid]: in experiment [1], the IC50 (as a rule, the midpoint of a concentration-inhibition curve) came out at 1080 ± 300 nM.

As for `O=c1c(O[C@@H]2OC[C@H](O)[C@H](O)[C@H]2O)c(-c2ccc(O)cc2)oc2cc(O)cc(O)c12` [Compound 8, kaempferol 3-O-α-L-arabinopyranoside], the “PTP1B inhibitory activity in high-resolution inhibition profile of crude extract” value (“PTP1B inhibitory activity” for short) in experiment [2] is listed as “PTP1B inhibitors”.

Consider `CC1(C)CC[C@]2(C(=O)O)CC[C@]3(C)C(=CC[C@@H]4[C@@]5(C)C[C@@H](O)[C@H](OC(=O)/C=C\c6ccc(O)cc6)C(C)(C)[C@@H]5CC[C@]43C)[C@@H]2C1` [Compound 16, 3-O-cis-p-coumaroyl-maslinic acid], for which the IC50 in experiment [1] stood at 460 ± 70 nM. Take `CC1(C)CC[C@]2(C(=O)O)CC[C@]3(C)C(=CC[C@@H]4[C@@]5(C)CC[C@H](O)C(C)(C)[C@@H]5[C@H](O)C[C@]43C)[C@@H]2C1` [Compound 15, Sumaresinolic acid]: the IC50 in experiment [1] stood at 1840 ± 300 nM. Take `CC1(C)CC[C@]2(C(=O)O)CC[C@]3(C)C(=CC[C@@H]4[C@@]5(C)CC[C@@H](O)C(C)(C)[C@@H]5[C@H](O)C[C@]43C)[C@@H]2C1` [Compound 14, 3-epi-sumaresinolic acid]: in experiment [1], the IC50 was 2870 ± 400 nM. The same measure, in the same setting: the value for `CC1C(C(=O)O)CCC2(C)CCC3(C)C(=CCC4C5(C)CC(O)C(OC(=O)C=Cc6ccc(O)cc6)C(C)(C)C5CCC43C)C12` (stereo not drawn) [Compound 18, 3-O-trans-p-coumaroyl-2α-hydroxydulcioic acid] was 1600 ± 500 nM.

With `C[C@@H]1O[C@@H](Oc2c(-c3cc(O)c(O)c(O)c3)oc3cc(O)cc(O)c3c2=O)[C@H](O)[C@H](O)[C@H]1O` [Compound 3, myricetin 3-O-α-L-rhamnopyranoside], the “PTP1B inhibitory activity” value in experiment [2] is listed as “PTP1B inhibitors”. Turning to `CC1(C)CC[C@]2(C(=O)O)CC[C@]3(C)C(=CC[C@@H]4[C@@]5(C)C[C@@H](O)[C@H](O)C(C)(C)[C@@H]5CC[C@]43C)[C@@H]2C1` [Compound 13, Maslinic acid], the IC50 in experiment [3] was 5930 nM; in experiment [1], 3210 ± 800 nM. Consider `COc1c(O)cc(-c2oc3cc(O)cc(O)c3c(=O)c2O[C@@H]2O[C@@H](C)[C@H](O)[C@@H](O)[C@H]2O)cc1O` [Compound 6, mearnsetin 3-O-α-L-rhamnopyranoside], for which the “PTP1B inhibitory activity” value in experiment [2] is recorded as “PTP1B inhibitors”. On to `C[C@@H]1O[C@@H](Oc2c(-c3ccc(O)c(O)c3)oc3cc(O)cc(O)c3c2=O)[C@H](OC(=O)c2cc(O)c(O)c(O)c2)[C@H](O)[C@H]1O` [Compound 5, quercetin 3-O-(2″-galloyl)-α-L-rhamnopyranoside], for which, in experiment [2], the “PTP1B inhibitory activity” value is “PTP1B inhibitors”. Same read-out and setting: the value for `O=C(/C=C/c1ccc(O)c(O)c1)O[C@@H]1O[C@H](COC(=O)c2cc(O)c(O)c(O)c2)[C@@H](OC(=O)c2cc(O)c(O)c(O)c2)[C@H](O)[C@H]1O` [Compound 2, 1-O-(E)-caffeoyl-4,6-di-O-galloyl-β-D-glucopyranose] was “PTP1B inhibitors”.
